According to PubChem BioAssay (NCI):
Values joined by “and” are separate entries in the source; they are usually repeats but may differ in a detail not shown here. Equal values may be shown once.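 Five concentrations, 48 hours, 96-well plates. The concentration for 50% growth inhibition is given as GI50. TGI is the concentration that stops growth completely.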

What was measured:
Assay in all cases: DTP human tumour cell line panel, 48 h
786-0 renal = test system: 786-0 renal
ACHN renal = test system: ACHN renal
EKVX NSCLC = test system: EKVX NSCLC
HL-60(TB) leukemia = test system: HL-60(TB) leukemia
OVCAR-4 ovarian = test system: OVCAR-4 ovarian
OVCAR-8 ovarian = test system: OVCAR-8 ovarian
SF-539 CNS = test system: SF-539 CNS
SK-MEL-5 melanoma = test system: SK-MEL-5 melanoma
SN12C renal = test system: SN12C renal
UACC-257 melanoma = test system: UACC-257 melanoma

| Compound | GI50 (786-0 renal) | TGI (786-0 renal) | GI50 (ACHN renal) | TGI (ACHN renal) | GI50 (EKVX NSCLC) | TGI (EKVX NSCLC) | GI50 (HL-60(TB) leukemia) | TGI (HL-60(TB) leukemia) | GI50 (OVCAR-4 ovarian) | TGI (OVCAR-4 ovarian) | GI50 (OVCAR-8 ovarian) | TGI (OVCAR-8 ovarian) | GI50 (SF-539 CNS) | TGI (SF-539 CNS) | GI50 (SK-MEL-5 melanoma) | TGI (SK-MEL-5 melanoma) | GI50 (SN12C renal) | TGI (SN12C renal) | GI50 (UACC-257 melanoma) | TGI (UACC-257 melanoma) |
| --- | --- | --- | --- | --- | --- | --- | --- | --- | --- | --- | --- | --- | --- | --- | --- | --- | --- | --- | --- | --- |
| COc1cc(/C=N/Nc2ncnc3c2cnn3Cc2ccccc2)ccc1O | 6.92 µM | 18.8 µM | 4.13 µM | > 25 µM | > 25 µM | > 25 µM | > 18.5 µM | > 25 µM | 5.05 µM | 15.3 µM | 5.85 µM | > 19.8 µM | 8.12 µM | 24.4 µM | 12.2 µM | > 25 µM | > 15.8 µM | > 25 µM | > 16.7 µM | > 25 µM |
| COc1cc(C(=O)Nc2cc(O)c(C/C=C(\C)CCC=C(C)C)c(O)c2)cc2c1O[C@]1(C)CC[C@@H](O)C(C)(C)[C@H]1C2 | 0.00947 µM and 0.0168 µM | 6.07 µM | 1.22 µM | 13.1 µM | 1.12 µM and 1.16 µM | 14.8 µM | 0.00716 µM and 0.0699 µM | – | 5.3 µM and 3.14 µM | 32 µM | 4.28 µM and 2.21 µM | 31.4 µM | 0.00623 µM | 0.411 µM and 0.658 µM | 0.177 µM and 0.631 µM | 2.1 µM and 3.99 µM | 1.95 µM and 2.44 µM | 19.9 µM | 4.91 µM and 1.58 µM | 23.8 µM |
| Cc1ccc2nc(CC(=O)c3ccc4ccccc4c3)c(=O)[nH]c2c1 | – | > 100 µM | – | > 100 µM | – | > 100 µM | – | > 100 µM | – | > 100 µM | – | > 100 µM | – | > 100 µM | – | > 100 µM | – | > 100 µM | – | > 100 µM |
| Cc1csc(-c2ccc3c(c2)COC3(CCCN(C)C)c2ccc(F)cc2)c1 (stereo not drawn) | 1.8 µM | 3.39 µM | 1.74 µM | 3.14 µM | 1.77 µM | 3.48 µM | 1.97 µM | 4.27 µM | 1.67 µM | 3.11 µM | 2.35 µM | 5.69 µM | 1.8 µM | 3.22 µM | 1.82 µM | 3.26 µM | 1.79 µM | 3.4 µM | 1.81 µM | 3.76 µM |
| COc1cc([N+](=O)[O-])c(OC)cc1-c1nc2n(c1/C(N)=N/C(=N)N)CCS2 | 25.1 µM | > 100 µM | 12.3 µM | > 100 µM | 40.3 µM | > 100 µM | > 100 µM | > 100 µM | 44 µM | > 100 µM | 17.5 µM | > 100 µM | 26.2 µM | > 100 µM | 75.3 µM | > 100 µM | > 100 µM | > 100 µM | 15.9 µM | 57 µM |
| O=C(Nc1ccc(O)c(NS(=O)(=O)c2ccc(F)cc2)c1)c1ccc(-c2ccccc2)cc1 | 7.87 µM | 22.7 µM | 6.3 µM | 25.7 µM | 7.17 µM | 26.4 µM | 1.4 µM | 5.34 µM | 4.45 µM | 25.3 µM | 5.32 µM | > 100 µM | 8.93 µM | 22.4 µM | 6.42 µM | 19.3 µM | 9.79 µM | 21.7 µM | 5.71 µM | 46.6 µM |
| Cc1nc2sc(C(=O)Nc3cccc(Cl)c3C)c(N)c2cc1C(=O)c1ccccc1 | 0.296 µM | > 50 µM | 0.344 µM | > 50 µM | 0.292 µM | > 50 µM | 0.147 µM | – | 1.08 µM | > 50 µM | 0.403 µM | > 50 µM | 0.159 µM | 0.915 µM | 0.278 µM | 6.13 µM | 0.568 µM | > 50 µM | 14.6 µM | > 50 µM |
| CC1OC(n2cc(I)c(=O)[nH]c2=O)C=CC1=O (stereo not drawn) | – | 26.9 µM | – | 31.5 µM | – | 32.3 µM | – | 24.6 µM | – | 29.8 µM | – | 30.8 µM | – | 27.5 µM | – | 29.5 µM | – | 33.3 µM | – | 27.8 µM |
| O=c1[nH]c(=O)n(C2OC(CO)C(O)C2O)cc1OCc1ccccc1 (stereo not drawn) | – | > 100 µM | – | > 100 µM | – | > 100 µM | – | > 68.6 µM | – | > 100 µM | – | > 100 µM | – | > 100 µM | – | > 100 µM | – | > 100 µM | – | > 100 µM |
| CC#CC(=O)N[C@H]1CCCN(c2c(F)cc(C(N)=O)c3[nH]c(C)c(C)c23)C1 | 19 µM | 56.6 µM | 16.4 µM | 42.8 µM | 18.3 µM | 45.9 µM | 21.4 µM | 46 µM | 22.5 µM | 81.3 µM | 26.1 µM | 94.7 µM | 13.3 µM | 28.4 µM | 17.9 µM | 31.9 µM | 20.4 µM | 58.2 µM | 14.5 µM | 34.9 µM |
| CCCCCCCCCCNC(=S)OCCCC | – | 76.3 µM | – | 69.3 µM | – | 65.8 µM | – | 31.2 µM | – | > 100 µM | – | > 100 µM | – | 48.3 µM | – | 33.3 µM | – | 38.2 µM | – | 49.3 µM |
| Cc1ccc(C(CC(=O)c2ccccc2)C(C(=O)c2ccccc2)C(c2ccc(C)cc2)C2C(=O)NC(=S)NC2=O)cc1 (stereo not drawn) | 26.2 µM | > 50 µM | 11.3 µM | > 50 µM | 19.5 µM | > 50 µM | 18.7 µM | > 50 µM | > 50 µM | > 50 µM | 16.9 µM | > 50 µM | 28.9 µM | > 50 µM | 10.6 µM | > 50 µM | 25.1 µM | > 50 µM | 13.4 µM | > 50 µM |
| O=c1cc(-c2ccccc2)nc2cc(-c3ccco3)[nH]n12 | 31 µM | > 100 µM | 22.6 µM | > 100 µM | 15.6 µM | 78.3 µM | 11.1 µM | > 100 µM | 23 µM | > 100 µM | 18 µM | > 100 µM | 13.3 µM | 78.9 µM | 6.58 µM | 22.1 µM | 18.5 µM | > 100 µM | 17.3 µM | > 100 µM |
| CNC(=O)c1c(NC(=O)c2ccc(C(C)C)cc2)sc2c1CCC(=O)C2 | 0.636 µM | 3.91 µM | 0.279 µM | 1.14 µM | 0.719 µM | 2.74 µM | 0.303 µM | 2.15 µM | 0.32 µM | 1.16 µM | 0.338 µM | 2.38 µM | 0.306 µM | 1.22 µM | 0.605 µM | 1.7 µM | 0.603 µM | 2.38 µM | 2.05 µM | 6.35 µM |
